Assay results published in PubChem BioAssay AID2060618 (Molecular Pharmacology Branch, DTP, NCI, 2025).

Test system: 454973-116-R2-J3-PDC spheroids, percent test/control viability
Experiment: Anticancer human tumor 454973-116-R2-J3-PDC patient-derived pancreatic carcinoma cell line growth inhibition [CLK]
Details: spheroids with HUVEC and MSC; for IC50: curve of first compound; for viability, T/C: stronger effect = lower value
Description: A high-throughput screen of multi-cell type tumor spheroids was designed to identify active combinations of […] and targeted small molecules. Complex spheroids include a stromal component modeled by human endothelial cells (HUVEC) and fibroblasts modeled by human mesenchymal stem cells (MSCs). The concentration ranges selected for each drug and investigational agent were based upon clinically achievable concentrations if the clinical Cmax of the agent was known.
Compounds. The drugs and investigational agents: cirtuvivint (SM08502; NSC835563), CC-671 (NSC850746), vemurafenib (NSC761431), tapotoclax (NSC804041), sotorasib (NSC818433), adagrasib (NSC831453), MRTX-1133 (NSC836407), BAY2416964 (NSC825713), copanlisib (NSC816437), inavolisib (NSC800729), abemaciclib (NSC768073), osimertinib (NSC779217), entinostat (NSC756642), eltanexor (KPT-8602, NSC794443), venetoclax (NSC766270), ceralasertib (NSC777638), bortezomib (NSC756655), olaparib (NSC753686), talazoparib (NSC767125), alisertib (NSC759677), peposertib (NSC802822), gemcitabine (NSC613327), 5-fluorouracil (NSC19893), SN-38 (NSC673596), oxaliplatin (NSC266046), paclitaxel (NSC125973), and doxorubicin (NSC123127), were obtained from the National Cancer Institute (NCI) Developmental Therapeutics Program Chemical Repository. The FDA-approved anticancer drug set is available from the Developmental Therapeutics Program at https://dtp.cancer.gov/organization/dscb/obtaining/available plates.htm. […] The stock solutions were prepared in dimethyl sulfoxide (DMSO, Sigma-Aldrich, St. Louis, MO, cat. D2650), except for the platinum complexes which were prepared in saline (Quality Biological, Gaithersburg, MD, cat. 114-055-101), at 800-fold the tested concentration and stored at -70 degrees C prior to their use. All drugs and investigational agents were tested over a range starting from a high concentration at or near the clinical Cmax and decreasing in half-log increments. If the clinical Cmax for an agent had not been determined, the highest concentration tested was 10 microM.
Cell Culture. All cells were maintained in an incubator at 37 degrees C and 5% CO2 with 95% humidity. The PDC lines were cultured according to standard operating procedures established by the NCI PDMR. Briefly, all PDCs were thawed and cultured in Matrigel-coated flasks prepared with a working solution of 1X Ham's F-12 nutrient mix, without supplementation (Invitrogen, Waltham, MA, cat. 11765054), 100 U/mL penicillin-streptomycin (Invitrogen, cat. 15140122), and 2.5% Matrigel (Corning Inc., Corning, NY, cat. 354248) for the first three passages. The 947758-054-R-J2-PDC line was cultured in 6B/Colon 1A media, which includes advanced DMEM/F-12 (Thermo Fisher Scientific, cat. 12634028), 10 mM HEPES (Thermo Fisher Scientific, cat. 15630080), 1X GlutaMAX supplement (Thermo Fisher Scientific, cat. 35050061), 0.1 mg/mL primocin (InvivoGen, cat. ant-pm-2), 10% defined fetal bovine serum, heat inactivated (HyClone Laboratories Inc., cat. SH30070.03HI), 1.25 mM N-Acetyl-L-cysteine (Sigma-Aldrich, cat. A9165), 10 mM nicotinamide (Sigma-Aldrich, cat. N0636), 1X B-27 supplement (Thermo Fisher Scientific, cat. 17504044), 1X N-2 supplement (Thermo Fisher Scientific, cat. 17502048), and 10 microM Y-27632 dihydrochloride (Tocris Bioscience, cat. 1254). The 876862-298-R-J1-PDC was cultured in 6E media, which includes all 6B/Colon 1A media components plus 50% L-WRN conditioned media (ATCC, cat. CRL-3276), 50 ng/mL recombinant human EGF recombinant protein (hEGF; Thermo Fisher Scientific, cat. PHG0311), 10 ng/mL recombinant human fibroblast growth factor 10 (hGFG-10; PeproTech, cat. 100-26), 1 ng/mL recombinant human fibroblast growth factor 2 (hFGF-2; PeproTech, cat. 100-18B), and 1 µM prostaglandin E2 (PGE2; Tocris, cat. 2296). The 227483-062-R1-J1-PDC line was cultured in Panc media, containing all 6E components except hFGF-2, with the addition of 500 nM SB-431542 (Selleckchem, cat. S1067) and 10 nM gastrin (Tocris, cat. 3006). […]

[1] = second compound 0.0316 µM, first compound 0.0316 µM
[2] = second compound 0.0316 µM, first compound 0.1 µM
[3] = second compound 0.0316 µM, first compound 0.316 µM
[4] = second compound 0.0316 µM, first compound 1 µM
[5] = second compound 0.0316 µM, first compound 3.16 µM
[6] = second compound 0.0316 µM, first compound 10 µM
[7] = second compound 0.1 µM, first compound 0.0316 µM
[8] = second compound 0.1 µM, first compound 0.1 µM
[9] = second compound 0.1 µM, first compound 0.316 µM
[10] = second compound 0.1 µM, first compound 1 µM
[11] = second compound 0.1 µM, first compound 3.16 µM
[12] = second compound 0.1 µM, first compound 10 µM
[13] = second compound 0.316 µM, first compound 0.0316 µM
[14] = second compound 0.316 µM, first compound 0.1 µM
[15] = second compound 0.316 µM, first compound 0.316 µM
[16] = second compound 0.316 µM, first compound 1 µM
[17] = second compound 0.316 µM, first compound 3.16 µM
[18] = second compound 0.316 µM, first compound 10 µM
[19] = second compound 1 µM, first compound 0.0316 µM
[20] = second compound 1 µM, first compound 0.1 µM
[21] = second compound 1 µM, first compound 0.316 µM
[22] = second compound 1 µM, first compound 1 µM
[23] = second compound 1 µM, first compound 3.16 µM
[24] = second compound 1 µM, first compound 10 µM
[25] = second compound 3.16 µM, first compound 0.0316 µM
[26] = second compound 3.16 µM, first compound 0.1 µM
[27] = second compound 3.16 µM, first compound 0.316 µM
[28] = second compound 3.16 µM, first compound 1 µM
[29] = second compound 3.16 µM, first compound 3.16 µM
[30] = second compound 3.16 µM, first compound 10 µM
[31] = second compound 10 µM, first compound 0.0316 µM
[32] = second compound 10 µM, first compound 0.1 µM
[33] = second compound 10 µM, first compound 0.316 µM
[34] = second compound 10 µM, first compound 1 µM
[35] = second compound 10 µM, first compound 3.16 µM
[36] = second compound 10 µM, first compound 10 µM
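Further: spheroids exposed to compounds for 7 days before readout.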

Compound `COc1cccc2c1C(=O)c1c(O)c3c(c(O)c1C2=O)CC(O)(C(=O)CO)CC3OC1CC(N)C(O)C(C)O1` (centres undefined) + CNC(=O)c1ccc(Nc2nc(OC3CCCC3)c3c(-c4ccc5nc(C)oc5c4)c[nH]c3n2)c(OC)c1 has an IC50 (second compound 0.0316 µM) of 31.6 nM, an IC50 (second compound 0.1 µM) of less than 31.6 nM and an IC50 (second compound 0.316 µM) of less than 31.6 nM. For the same compound, the IC50 (second compound 1 µM) was less than 31.6 nM, the IC50 (second compound 3.16 µM) was less than 31.6 nM and the IC50 (second compound 10 µM) was less than 31.6 nM. The viability, T/C [1] was 51.4%, the viability, T/C [2] was 23% and the viability, T/C [3] was 21.7%. It also gave a viability, T/C [4] of 6.66%, a viability, T/C [5] of 1.89% and a viability, T/C [6] of 1.95%. The viability, T/C [7] was 46.4%, the viability, T/C [8] was 26.4% and the viability, T/C [9] was 19.6%. For the same compound, the viability, T/C [10] was 4.09%, the viability, T/C [11] was 2.62% and the viability, T/C [12] was 1.16%. For the same compound, the viability, T/C [13] was 27.8%, the viability, T/C [14] was 25% and the viability, T/C [15] was 14.5%. The viability, T/C [16] was 4.53%, the viability, T/C [17] was 2.76% and the viability, T/C [18] was 1.6%. It also gave a viability, T/C [19] of 25.2%, a viability, T/C [20] of 18.5% and a viability, T/C [21] of 9.38%. For the same compound, the viability, T/C [22] was 1.17%, the viability, T/C [23] was 0.61% and the viability, T/C [24] was 0.81%. The viability, T/C [25] was 26.2%, the viability, T/C [26] was 17.2% and the viability, T/C [27] was 4.87%. The viability, T/C [28] was 0.94%, the viability, T/C [29] was 1.27% and the viability, T/C [30] was 0.57%. It also gave a viability, T/C [31] of 25.1%, a viability, T/C [32] of 20.3% and a viability, T/C [33] of 3.72%. It also gave a viability, T/C [34] of 0.69%, a viability, T/C [35] of 1.84% and a viability, T/C [36] of 0.97%.
Work on `CC1COCCN1c1cc(C2(S(C)(=N)=O)CC2)nc(-c2ccnc3[nH]ccc23)n1` (centres undefined) + CN1CCN(c2cc(C(=O)Nc3cc4cc(-c5cnn(C)c5)ccc4cn3)ccn2)CC1 yielded an IC50 (second compound 0.0316 µM) of 7240 nM, an IC50 (second compound 0.1 µM) of 4520 nM and an IC50 (second compound 0.316 µM) of less than 31.6 nM. For the same compound, the IC50 (second compound 1 µM) was less than 31.6 nM, the IC50 (second compound 3.16 µM) was less than 31.6 nM and the IC50 (second compound 10 µM) was less than 31.6 nM. For the same compound, the viability, T/C [1] was 97.4%, the viability, T/C [2] was 105% and the viability, T/C [3] was 96.2%. The viability, T/C [4] was 106%, the viability, T/C [5] was 83.3% and the viability, T/C [6] was 37.1%. It also gave a viability, T/C [7] of 73.4%, a viability, T/C [8] of 80.5% and a viability, T/C [9] of 91.4%. The viability, T/C [10] was 77.5%, the viability, T/C [11] was 62.9% and the viability, T/C [12] was 21.5%. It also gave a viability, T/C [13] of 1.53%, a viability, T/C [14] of 2.23% and a viability, T/C [15] of 1.84%. The viability, T/C [16] was 1.74%, the viability, T/C [17] was 1.04% and the viability, T/C [18] was 0.46%. It also gave a viability, T/C [19] of 0.13%, a viability, T/C [20] of 0.13% and a viability, T/C [21] of 0.16%. It also gave a viability, T/C [22] of 0.1%, a viability, T/C [23] of 0.11% and a viability, T/C [24] of 0.1%. For the same compound, the viability, T/C [25] was 0.17%, the viability, T/C [26] was 0.21% and the viability, T/C [27] was 0.22%. The viability, T/C [28] was 0.2%, the viability, T/C [29] was 0.15% and the viability, T/C [30] was 0.21%. For the same compound, the viability, T/C [31] was 1.56%, the viability, T/C [32] was 0.21% and the viability, T/C [33] was 0.22%. The viability, T/C [34] was 0.31%, the viability, T/C [35] was 0.25% and the viability, T/C [36] was 0.6%.
